Results published in US8546608B2, “Proteasome inhibitors and methods of using the same” (Cephalon, Inc., priority 2003, dated 2013).

What was measured:
[1] = target: T1, 20S Human Erythrocyte Proteasome (HEP) (Homo sapiens, UniProt P20618+P28074); assay: Chymotrypsin-like activity of 20S Human Erythrocyte Proteasome (HEP), IC50 determination; type: biochemical; conditions: assay of Example C, inhibition of HEP
T1 construct: 20S Human Erythrocyte Proteasome (HEP), purchased from Immatics Biotechnologies Inc; purchased Immatics Biotechnologies Inc., Tübingen, Germany; host or cells: human erythrocytes (natural source)
Outline: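 20S proteasome at 0.2 μg/mL (about 0.6 nM catalytic sites) in 20 mM Tris with 0.04% SDS, preincubated 15 min at 37° C with inhibitor before Suc-LLVY-AMC (100 μM final). AMC fluorescence read in the linear range; triplicates, IC50 from concentration series.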

[2] = target: T2, proteasome in Molt-4 cells (human leukemia) (Homo sapiens, UniProt P20618+P28074); type: cell-based; conditions: assay of Example E, inhibition of MOLT4; read-out: MOLT4 (EC50)
T2 sequence (P28074 60-263): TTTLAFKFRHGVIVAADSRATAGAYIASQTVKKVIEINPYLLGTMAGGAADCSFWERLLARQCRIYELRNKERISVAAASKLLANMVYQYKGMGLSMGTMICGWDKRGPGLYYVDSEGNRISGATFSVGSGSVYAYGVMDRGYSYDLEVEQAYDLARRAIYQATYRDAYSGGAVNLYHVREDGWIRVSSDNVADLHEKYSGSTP
T2 sequence (P20618 29-241): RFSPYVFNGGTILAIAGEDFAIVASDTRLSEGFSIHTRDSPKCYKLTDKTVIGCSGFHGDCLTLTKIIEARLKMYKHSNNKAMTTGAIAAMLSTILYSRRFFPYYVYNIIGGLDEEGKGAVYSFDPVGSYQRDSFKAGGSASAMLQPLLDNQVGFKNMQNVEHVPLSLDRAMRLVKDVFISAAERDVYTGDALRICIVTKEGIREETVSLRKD
Outline: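 Intact Molt-4 cells (6×10^6 cells/mL) in HEPES-buffered saline were preincubated with inhibitor 15 min at 37 °C, then given cell-permeable MeOSuc-FLF-AFC at 25 μM final.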

| IC50 [1] | melting point | EC50 [2] | Compound |
| --- | --- | --- | --- |
| < 10 nM | 145 to 147 °C | < 200 nM | CCCCc1ccc(C(=O)N[C@@H](CNC(=O)c2ccc(S(N)(=O)=O)cc2)C(=O)N[C@@H](CC(C)C)B2O[C@@H]3C[C@@H]4C[C@@H](C4(C)C)[C@]3(C)O2)cc1 [D.24.16] |
| < 10 nM | 120 to 123 °C | 200 to 2000 nM | CCCCc1ccc(C(=O)N[C@@H](CNS(=O)(=O)c2cn(C)cn2)C(=O)N[C@@H](CC(C)C)B(O)O)cc1 [E.5.26, Boronic acid, [(1R)-1-[[(2S)-3-[1-methyl-1H-imidazole-4-sulfamoyl]-2-[(4-butylbenzoyl)amino]-1-oxopropyl]amino]-3-methylbutyl]] |
| < 10 nM | 156 to 159 °C | 200 to 2000 nM | CCCCc1ccc(C(=O)N[C@@H](CNC(=O)c2ccc(S(N)(=O)=O)cc2)C(=O)N[C@@H](CC(C)C)B(O)O)cc1 [E.5.17, Boronic acid, [(1R)-1-[[(2S)-3-[4-sulfamylbenzoylamino]-2-[(4-butylbenzoyl)amino]-1-oxopropyl]amino]-3-methylbutyl]] |
| < 10 nM | 178 to 180 °C | < 200 nM | CCCCc1ccc(C(=O)N[C@@H](CNC(=O)c2ccc(N3CCOCC3)nc2)C(=O)N[C@@H](CC(C)C)B(O)O)cc1 [E.5.28, Boronic acid, [(1R)-1-[[(2S)-3-(6-morpholinonicotinamide]-2-[(4-butylbenzoyl)amino]-1-oxopropyl]amino]-3-methylbutyl]] |
| < 10 nM | 110 °C | < 200 nM | CCCCCCCCCC(=O)N[C@@H](CNC(=O)c1cccs1)C(=O)N[C@@H](CC(C)C)B1O[C@@H]2C[C@@H]3C[C@@H](C3(C)C)[C@]2(C)O1 [D.24.9, Decanamide, N-[(1S)-1-[[[(1R)-1-[(3aS,4S,6S,7aR)-hexahydro-3a,5,5-trimethyl-4,6-methano-1,3,2-benzodioxaborol-2-yl]-3-methylbutyl]amino]carbonyl]-2-[(thien-2-ylcarbonyl)amino]ethyl]-] |
| < 10 nM | 150 to 155 °C | 200 to 2000 nM | CC(C)C[C@H](NC(=O)[C@H](CNS(=O)(=O)c1ccc(F)cc1)NC(=O)c1ccc(Oc2ccccc2)cc1)B(O)O [E.5.30, Boronic acid, [(1R)-1-[[(2S)-3-[4-fluoro-benzenesulfonamide]-2-[(4-phenoxybenzoyl)amino]-1-oxopropyl]amino]-3-methylbutyl]] |
| < 10 nM | 200 to 208 °C | < 200 nM | CC(C)C[C@H](NC(=O)[C@@H](NC(=O)c1ccc(-c2ccccc2)cc1)[C@@H](C)O)B(O)O [E.3.5, Boronic acid, [(1R)-1-[[(2S,3R)-3-hydroxy-2-[(4-phenylbenzoyl)amino]-1-oxobutyl]amino]-3-methylbutyl]] |
| < 10 nM | 130 to 135 °C | < 200 nM | CCCCc1ccc(C(=O)N[C@@H](CNC(=O)c2cccn2C)C(=O)N[C@@H](CC(C)C)B(O)O)cc1 [E.5.16, Boronic acid, [(1R)-1-[[(2S)-3-[1-N-methyl-2-pyrrolylcarbonylamino]-2-[(4-butylbenzoyl)amino]-1-oxopropyl]amino]-3-methylbutyl]] |
| < 10 nM | 136 to 141 °C | < 200 nM | CCCCCCCCCC(=O)N[C@@H](CNC(=O)c1cccnc1)C(=O)N[C@@H](CC(C)C)B(O)O [E.5.22, Boronic acid, [(1R)-1-[[(2S)-3-(nicotinoylamino)-2-(decanoylamino)-1-oxopropyl]amino]-3-methylbutyl]] |
| < 10 nM | 133 to 135 °C | < 200 nM | CCCCc1ccc(C(=O)N[C@@H](CNC(C)=O)C(=O)N[C@@H](CC(C)C)B2O[C@@H]3C[C@@H]4C[C@@H](C4(C)C)[C@]3(C)O2)cc1 [D.24.3, 4-butylbenzamide, N-[(1S)-1-[[[(1R)-1-[(3aS,aS,6S,7aR)-hexahydro-3a,5,5-trimethyl-4,6-methano-1,3,2-benzodioxaborol-2-yl-]-3-methylbutyl]amino]carbonyl]-2-(acetamido)ethyl]-] |
| < 10 nM | 107 to 109 °C | < 200 nM | CCCCc1ccc(C(=O)N[C@@H](CNC(C)=O)C(=O)N[C@@H](CC(C)C)B(O)O)cc1 [E.5.8] |
| < 10 nM | 150 to 152 °C | < 200 nM | CCCCc1ccc(C(=O)N[C@@H](CNC(=O)c2ccc(C)cc2)C(=O)N[C@@H](CC(C)C)B2O[C@@H]3C[C@@H]4C[C@@H](C4(C)C)[C@]3(C)O2)cc1 [D.24.6, 4-butylbenzamide, N-[(1S)-1-[[[(1R)-1-[(3aS,aS,6S,7aR)-hexahydro-3a,5,5-trimethyl-4,6-methano-1,3,2-benzodioxaborol-2-yl-]-3-methylbutyl]amino]carbonyl]-2-[(4-methylphenyl)carbonylamino]ethyl]-] |
| < 10 nM | 178 to 180 °C | 200 to 2000 nM | CCCCc1ccc(C(=O)N[C@@H](CNC(=O)c2ccc(-c3ccccc3)cc2)C(=O)N[C@@H](CC(C)C)B(O)O)cc1 [E.5.33, Boronic acid, [(1R)-1-[[(2S)-3-(4-phenybenzamide]-2-[(4-butylbenzoyl)amino]-1-oxopropyl]amino]-3-methylbutyl]] |
